Measured values as given in PMC11270734 (ACS Omega, 2024).

Key:
[1] = test system: chloroquine-sensitive P. falciparum (3D7 strain); type: cell-based; conditions: Plasmodium falciparum, 3D7, 48 h, read-out: MEAN IC50 ± SE
[2] = Cytotoxicity, MTT assay; type: cell-based; conditions: human, HEK-293 cells

Compound: O=C(c1ccccc1)N1CCC2(CC1)OOC1(CCCCC1)OO2 [3b]
- IC50 [1]: 0.0179 ± 0.00196 µM
- CC50 at 72 h [2]: > 100 µg/mL

Compound: O=C(c1ccccc1)N1CCC2(CC1)OOC1(CCCCCC1)OO2 [3c]
- IC50 [1]: 0.0219 ± 0.00179 µM
- CC50 at 72 h [2]: > 100 µg/mL

Compound: O=C(c1ccccc1)N1CCC2(CC1)OOC1(OO2)C2CC3CC(C2)CC1C3 [3d]
- IC50 [1]: 0.00728 ± 0.00057 µM
- CC50 at 72 h [2]: > 100 µg/mL

Compound: CC1(C)OOC2(CCN(C(=O)c3ccccc3)CC2)OO1 [3e]
- IC50 [1]: 0.0299 ± 0.00128 µM
- CC50 at 72 h [2]: > 100 µg/mL

Compound: CCC1(C)OOC2(CCN(C(=O)c3ccccc3)CC2)OO1 [3f]
- IC50 [1]: 0.0425 ± 0.00304 µM
- CC50 at 72 h [2]: > 100 µg/mL

Compound: CCCC1(C)OOC2(CCN(C(=O)c3ccccc3)CC2)OO1 [3g]
- IC50 [1]: 0.0434 ± 0.00238 µM
- CC50 at 72 h [2]: > 100 µg/mL

Compound: CC(C)C1(C)OOC2(CCN(C(=O)c3ccccc3)CC2)OO1 [3h]
- IC50 [1]: 0.0413 ± 0.00233 µM
- CC50 at 72 h [2]: > 100 µg/mL

Compound: CCCCC1(C)OOC2(CCN(C(=O)c3ccccc3)CC2)OO1 [3j]
- IC50 [1]: 0.0175 ± 0.00124 µM
- CC50 at 72 h [2]: > 100 µg/mL

Compound: CC(C)CC1(C)OOC2(CCN(C(=O)c3ccccc3)CC2)OO1 [3k]
- IC50 [1]: 0.0189 ± 0.00212 µM
- CC50 at 72 h [2]: > 100 µg/mL

Compound: CCCCCC1(C)OOC2(CCN(C(=O)c3ccccc3)CC2)OO1 [3l]
- IC50 [1]: 0.0167 ± 0.00193 µM
- CC50 at 72 h [2]: > 100 µg/mL

Compound: CCC1(CC)OOC2(CCN(C(=O)c3ccccc3)CC2)OO1 [3m]
- IC50 [1]: 0.0175 ± 0.00159 µM
- CC50 at 72 h [2]: > 100 µg/mL

Compound: CCCC1(CCC)OOC2(CCN(C(=O)c3ccccc3)CC2)OO1 [3o]
- IC50 [1]: 0.0173 ± 0.00178 µM
- CC50 at 72 h [2]: > 100 µg/mL

Compound: CC1(c2ccccc2)OOC2(CCN(C(=O)c3ccccc3)CC2)OO1 [3p]
- IC50 [1]: 0.0163 ± 0.00093 µM
- CC50 at 72 h [2]: > 100 µg/mL

Compound: CC1(c2ccc(Cl)cc2)OOC2(CCN(C(=O)c3ccccc3)CC2)OO1 [3q]
- IC50 [1]: 0.0118 ± 0.0008 µM
- CC50 at 72 h [2]: > 100 µg/mL

Compound: CC1(c2ccc(C#N)cc2)OOC2(CCN(C(=O)c3ccccc3)CC2)OO1 [3r]
- IC50 [1]: 0.0157 ± 0.00078 µM
- CC50 at 72 h [2]: > 100 µg/mL

Compound: O=Cc1ccc(C(=O)N2CCC3(CC2)OOC2(OO3)C3CC4CC(C3)CC2C4)cc1 [3u]
- IC50 [1]: 0.00635 ± 0.00055 µM
- CC50 at 72 h [2]: > 100 µg/mL

Compound: C[C@@H]1CC[C@H]2[C@@H](C)C(=O)O[C@@H]3O[C@@]4(C)CC[C@@H]1[C@]32OO4 [artemisinin, reference compound]
- CC50 at 72 h [2]: > 100 µg/mL
